According to patent publication US8389523B2, “Substituted quinoxaline and an agrochemical composition thereof” (Kumiai Chemical Industry Co., Ltd., priority 2007, dated 2013):

Key:
Assay type in all cases: in vivo
Set-up in all cases: scale not given here
[1] = tested on: Echinochloa oryzicola Vasing; test: Herbicidal effects in paddy field soil treatment (Test Example 1); conditions: for Herbicidal effects index, Echinochloa oryzicola Vasing: paddy field soil treatment, 1000 g of the active ingredient per hectare, wettable powder added dropwise on water surface, 21st day after treatment; for herbicidal effect (index) on Echinochloa oryzicola Vasing: paddy field soil treatment (Test Example 1), criteria of Table 138
Method in brief: (§1)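 Weed seeds were sown into puddled, leveled paddy soil in pots and flooded to 3 cm water depth. One day later the diluted wettable powder formulation was dropped onto the water surface at 1000 g active ingredient per hectare. Herbicidal effect was scored on day 21 after greenhouse growth.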

[2] = tested on: Monochoria vaginalis (Burm. f.) Presl var. plantaginea (Roxb.) Solms-Laub.; test: as above; conditions: for Herbicidal effects index, Monochoria vaginalis (Burm. f.) Presl var. plantaginea (Roxb.) Solms-Laub.: paddy field soil treatment, 1000 g of the active ingredient per hectare, wettable powder added dropwise on water surface, 21st day after treatment; for herbicidal effect (index) on Monochoria vaginalis (Burm. f.) Presl var. plantaginea (Roxb.) Solms-Laub.: paddy field soil treatment (Test Example 1), criteria of Table 138
Method in brief: as §1

[3] = tested on: Scirpus juncoides Roxb. var. ohwianus. T. Koyama; test: as above; conditions: for Herbicidal effects index, Scirpus juncoides Roxb. var. ohwianus. T. Koyama: paddy field soil treatment, 1000 g of the active ingredient per hectare, wettable powder added dropwise on water surface, 21st day after treatment; for herbicidal effect (index) on Scirpus juncoides Roxb. var. ohwianus. T. Koyama: paddy field soil treatment (Test Example 1), criteria of Table 138
Method in brief: as §1

[4] = tested on: Abutilon theophrasti medicus; test: Herbicidal effects in upland field soil treatment (Test Example 2); conditions: 1000 g active ingredient per hectare, 21st day after treatment, criteria of Table 138
Method in brief: (§2)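 Pre-emergence soil application: seeds sown in upland field soil, covered, then wettable powder diluted in water sprayed on the soil surface at 1000 g active ingredient/ha in 1000 L/ha. Plants grown in greenhouse; herbicidal effect scored on a rating scale 21 days after treatment.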

Amaranthus viridis L. [5] = test: as above; conditions: 1000 g active ingredient per hectare, 21st day after treatment, criteria of Table 138
Method in brief: as §2

[6] = tested on: Abutilon theophrasti medicus; test: Herbicidal effects in upland field foliar treatment (Test Example 3); conditions: criteria of Table 138; for herbicidal effects on Abutilon theophrasti medicus: 1000 g of the active ingredient per hectare, 14th day after the treatment, wettable powder; for herbicidal effect (index) on Abutilon theophrasti medicus: 1000 g active ingredient per hectare, 14th day after treatment
Method in brief: (§3)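 Weeds were sown in upland field soil and grown two weeks in a greenhouse before a foliar spray over the whole plant. Wettable powder was diluted in water and applied at 1000 L/ha, delivering 1000 g active ingredient/ha. Herbicidal effect was scored against set rating criteria 14 days after treatment.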

Amaranthus viridis L. [7] = test: as above; conditions: criteria of Table 138; for herbicidal effects on Amaranthus viridis L.: 1000 g of the active ingredient per hectare, 14th day after the treatment, wettable powder; for herbicidal effect (index) on Amaranthus viridis L.: 1000 g active ingredient per hectare, 14th day after treatment
Method in brief: as §3

[8] = tested on: Echinochloa crus-galli (L.) P. Beauv. var. crus-galli; test: as above; conditions: criteria of Table 138; for herbicidal effects on Echinochloa crus-galli (L.) P. Beauv. var. crus-galli: 1000 g of the active ingredient per hectare, 14th day after the treatment, wettable powder; for herbicidal effect (index) on Echinochloa crus-galli (L.) P. Beauv. var. crus-galli: 1000 g active ingredient per hectare, 14th day after treatment
Method in brief: as §3

Row | SMILES | Herbicidal effects index, Echinochloa oryzicola Vasing [1] | Herbicidal effects index, Monochoria vaginalis (Burm. f.) Presl var. plantaginea (Roxb.) Solms-Laub. [2] | Herbicidal effects index, Scirpus juncoides Roxb. var. ohwianus. T. Koyama [3] | herbicidal effect (index) on Abutilon theophrasti medicus [4] | herbicidal effect (index) on Amaranthus viridis L. (Amaranthus viridis L. [5]) | herbicidal effects on Abutilon theophrasti medicus [6] | herbicidal effects on Amaranthus viridis L. (Amaranthus viridis L. [7]) | herbicidal effects on Echinochloa crus-galli (L.) P. Beauv. var. crus-galli [8] | herbicidal effect (index) on Abutilon theophrasti medicus [6] | herbicidal effect (index) on Amaranthus viridis L. (Amaranthus viridis L. [7]) | herbicidal effect (index) on Echinochloa crus-galli (L.) P. Beauv. var. crus-galli [8] | herbicidal effect (index) on Echinochloa oryzicola Vasing [1] | herbicidal effect (index) on Monochoria vaginalis (Burm. f.) Presl var. plantaginea (Roxb.) Solms-Laub. [2] | herbicidal effect (index) on Scirpus juncoides Roxb. var. ohwianus. T. Koyama [3]
1 | COCc1ccc(-n2c(=O)c(C(=O)C3=C(O)CCCC3=O)nc3ccccc32)cc1 [II-149] | 5 | 5 | 5 | 4 | 5 | 5 | 5 | 5 |  |  |  |  |  | 
2 | CCCn1c(=O)c(C(=O)C2=C(O)CCCC2=O)nc2ccccc21 [Compound I-12] | 5 | 5 | 5 | 5 | 5 |  |  |  | 5 | 5 | 4 |  |  | 
3 | CC(C)c1ccc(-n2c(=O)c(C(=O)C3=C(O)CCCC3=O)nc3cccnc32)cc1 [IV-30] | 5 | 5 | 5 | 4 | 5 | 4 | 5 | 5 |  |  |  |  |  | 
4 | O=C1CCCC(O)=C1C(=O)c1nc2ccccc2n(-c2ccc(F)cc2)c1=O [II-8] | 5 | 5 | 5 | 5 | 5 |  |  |  | 5 | 5 | 5 |  |  | 
5 | O=C1CCCC(O)=C1C(=O)c1nc2cccnc2n(-c2ccccc2OC(F)(F)F)c1=O [IV-100] |  |  |  | 5 | 5 | 5 | 5 | 5 |  |  |  | 5 | 5 | 5
6 | CC1(C)CC(=O)C(C(=O)c2cnc3ccccc3n2)=C(O)C1 [comparative compound C, reference compound] |  |  |  | 0 | 3 | 4 | 0 | 0 |  |  |  | 1 | 2 | 1
7 | O=C1CCCC(O)=C1C(=O)c1nc2cccnc2n(-c2ccccc2OC(F)F)c1=O [IV-85] |  |  |  | 5 | 5 | 5 | 5 | 5 |  |  |  | 5 | 5 | 5
8 | O=C1CCCC(O)=C1C(=O)c1nc2ccc(F)cc2n(-c2ccc3c(c2)OCO3)c1=O [II-225] | 5 | 5 | 5 | 5 | 5 | 5 | 5 | 5 |  |  |  |  |  | 
9 | CCOC(=O)Cn1c(=O)c(C(=O)C2=C(O)CCCC2=O)nc2cccnc21 [III-96] | 5 | 5 | 5 | 5 | 5 | 5 | 5 | 5 |  |  |  |  |  | 
10 | CCn1c(=O)c(C(=O)C2=C(O)CCCC2=O)nc2cccnc21 [III-7] | 5 | 5 | 5 | 5 | 5 | 5 | 5 | 4 |  |  |  |  |  | 
11 | O=C(C1=C(O)C2CCC(C2)C1=O)c1nc2ccccc2n(COCC(F)(F)F)c1=O (stereo not drawn) [I-62] | 5 | 5 | 5 | 5 | 5 |  |  |  | 5 | 5 | 5 |  |  | 
12 | COc1cc(-n2c(=O)c(C(=O)C3=C(O)CCCC3=O)nc3ccccc32)ccc1Cl [II-167] | 5 | 5 | 5 | 5 | 5 | 5 | 5 | 5 |  |  |  |  |  | 
